The test system of data set [1] is nuclear export of the XPO1 cargo protein Rev-GFP in stably transfected U2OS cells. Kind of data set: Rev-GFP assay (nuclear retention of Rev-GFP). The class given is cell-based. To be noted: Homo sapiens. From the text:
(§1) For this assay we utilized biotinylated LMB (b-LMB) as a tool compound to quantify the amount of XPO1 bound by SINE compounds (Figure 1). b-LMB was synthesized by coupling a biotin tag to LMB. We compared the inhibition of nuclear export and the cytotoxicity of b-LMB to that of the unmodified LMB. […] We then quantified the effects of these compounds on cell death in several cancer cell lines using an MTT cytotoxicity assay (Table 2).
For the typical Rev-GFP assay, U2OS cells stably expressing Rev-GFP [42] were cultured in 96 well plates at 7,500 - 15,000 cells/well. […] After fixation cells were stained with DAPI (Invitrogen) for 10 minutes at room temperature. Cells were imaged with a Nikon fluorescent microscope at 10X magnification and intensity of the GFP and nuclear area were measured and recorded. Cells were scored as either GFP nuclear positive or negative. Number of positive cells were divided by total number of cells in order to calculate percentage of cells with nuclear GFP per well.

Data set [2] in a line: MTT assay of unmodified and biotinylated SINE compounds (cell line not given). The class given is cell-based. The following applies: for IC50: cell line not named; for fold less cytotoxic compared to unmodified counterpart: ratio of MTT IC50 values. For orientation: Formazan colour is commonly taken as a measure of viable cells.
For data set [3], the target named is XPO1 (Homo sapiens, UniProt O14980). The data set is described as follows: XPO1 occupancy assay in cultured cell lines (biotinylated probe pull-down, Simple Western). The class given is cell-based. Set-up: Cells were collected, washed with PBS, and lysed with RIPA Buffer; endogenous in cells; host or cells: MM.1S. The following applies: MM.1S cells. How it is done: b-LMB was tested for the ability to bind XPO1 protein. First, a dose-response curve was generated by exposing MM.1S cells to increasing concentrations of b-LMB (0 – 500 nM) for 1.5 hours in culture. The cells were then collected, lysed, and a portion of the lysate (input) was reserved prior to incubating the remaining lysate with streptavidin-tagged beads overnight. After extensive washes, b-LMB bound XPO1 was eluted from the beads, and XPO1 from both input and bead eluate was detected and quantified by Simple Western on Peggy Sue. Simple Western allows for the chemiluminescent detection of proteins from small volumes of samples that are run through a matrix-filled capillary. The signal is detected by a CCD camera which generates a digital image and then reports quantitative results. […] The protein signals for XPO1 detected by Simple Western in Figure 2A were reported as mean peak areas and were used to compare levels of XPO1 present in each sample to produce a graphical representation of the ratio of free XPO1 detected at each concentration of b-LMB (Figure 2B). “Ratio of bound XPO1” is defined as the ratio of the mean peak area of b-LMB bound XPO1 detected in the eluate compared to the mean peak area of all XPO1 detected in the input lysate, while “free-fraction” refers to the amount of XPO1 not occupied by SINE compound, as described later.
Chain of XPO1 (O14980 whole entry): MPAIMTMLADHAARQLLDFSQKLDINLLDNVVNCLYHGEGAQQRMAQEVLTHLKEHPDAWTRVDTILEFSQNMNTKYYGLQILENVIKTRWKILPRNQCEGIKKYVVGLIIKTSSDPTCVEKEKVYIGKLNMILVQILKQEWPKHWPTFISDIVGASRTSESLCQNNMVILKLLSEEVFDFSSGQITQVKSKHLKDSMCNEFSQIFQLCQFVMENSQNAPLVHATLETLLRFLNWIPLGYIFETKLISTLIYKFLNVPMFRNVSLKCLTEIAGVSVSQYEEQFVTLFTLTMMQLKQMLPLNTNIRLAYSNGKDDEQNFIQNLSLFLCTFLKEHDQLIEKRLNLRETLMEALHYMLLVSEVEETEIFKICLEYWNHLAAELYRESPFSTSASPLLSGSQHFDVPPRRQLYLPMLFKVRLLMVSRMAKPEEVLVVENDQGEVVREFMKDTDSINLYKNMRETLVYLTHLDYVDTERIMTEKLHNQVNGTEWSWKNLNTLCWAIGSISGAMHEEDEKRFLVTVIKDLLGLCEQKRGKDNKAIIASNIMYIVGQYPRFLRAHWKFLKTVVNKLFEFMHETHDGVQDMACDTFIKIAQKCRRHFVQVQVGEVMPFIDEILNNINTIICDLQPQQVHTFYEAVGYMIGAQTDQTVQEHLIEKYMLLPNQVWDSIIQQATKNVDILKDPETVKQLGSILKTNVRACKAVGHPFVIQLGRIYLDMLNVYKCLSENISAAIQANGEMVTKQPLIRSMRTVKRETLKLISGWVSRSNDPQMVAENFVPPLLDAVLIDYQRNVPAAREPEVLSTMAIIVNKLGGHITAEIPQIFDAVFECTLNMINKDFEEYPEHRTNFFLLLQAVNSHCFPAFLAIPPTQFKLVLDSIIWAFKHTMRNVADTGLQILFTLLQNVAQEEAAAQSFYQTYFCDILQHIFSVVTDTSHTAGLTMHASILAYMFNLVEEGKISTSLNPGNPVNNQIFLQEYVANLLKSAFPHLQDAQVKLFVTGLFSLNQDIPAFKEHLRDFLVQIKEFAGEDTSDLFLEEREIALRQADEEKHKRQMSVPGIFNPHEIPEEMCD
The cells were then collected and processed for the XPO1 occupancy assay. […] For these assays, the “ratio of free-fraction XPO1” is calculated by dividing the mean peak areas of XPO1 occupied by b-LMB (from the eluate) by the total amount of XPO1 (from the input).
Cells were collected, washed with PBS, and lysed with RIPA Buffer (Thermo Scientific) with protease inhibitors [Complete Ultra Tablets, Mini, EDTA-free, Easy pack (Roche), PhosStop Easy (Roche)]. A portion of the lysate was reserved (input) while the rest was added to washed Dynabeads MyOne Streptavidin T1 (Invitrogen) with RIPA Buffer. Samples were incubated overnight with constant rotation at 4°C. Beads were then washed 5 times with modified RIPA (150 mM NaCl, 50 mM Tris, 1% NP-40, 0.1% Na deoxycholate, 1 mM EDTA, pH 7.8). The reserved portion of lysates (input) and the beads were each mixed with Protein Simple buffer (Protein Simple), DTT (Invitrogen), and fluorescent standards (Protein Simple), then boiled at 95°C for 10 min. Eluates and inputs were analyzed using a capillary western method (Peggy Sue; Protein Simple) with the following primary antibodies: XPO1 (Santa Cruz) and β-actin (Santa Cruz). Capillary westerns were performed by SBH Sciences (Natick, MA). Peak areas corresponding to the protein molecular weight of XPO1 and actin were compared for sample inputs, while the ratio of XPO1 peak areas in eluate to input (ratio of bound or free-fraction XPO1) versus compound concentration were used in XLFit model 205 to calculate 50% and 90% occupancy curves.

Data set [4] concerns MM.1S. The data set is described as follows: MTT cytotoxicity assay. The class given is cell-based. The following applies: Homo sapiens, MM1.S, 72 hours, read-out: IC50.
The test system of data set [5] is HCT-116. Kind of data set: MTT cytotoxicity assay. To be noted: Homo sapiens, 72 hours, read-out: IC50. The class given is cell-based.
Data set [6] concerns AML2. Kind of data set: MTT cytotoxicity assay. The class given is cell-based. The following applies: 72 hours, read-out: IC50.
Data set [7] deals with AML3. Kind of data set: MTT cytotoxicity assay. The class given is cell-based. To be noted: 72 hours, read-out: IC50.
Data set [8] has as its system several cancer cell lines. To be noted: human, 72 h. On the procedure:
as §1
Cells were seeded in 96-well flat-bottom culture plates. […] Triplicate wells per concentration were used to calculate IC50 curves. The CellTiter-Fluor Cell Viability Assay (Promega) was performed as instructed by the manufacturer. The whole procedure was repeated three times. The inhibitory rate of cell growth was calculated using the formula: % growth inhibition = (1− OD extract treated)/OD negative control × 100).

[9] abbreviates: read-out: Rev GFP IC50 (nM), U2OS Rev-GFP cells, unmodified and biotinylated SINE compounds.
[10] abbreviates: read-out: Rev-GFP IC50 (μM), U2OS Rev-GFP cells.
Where [11] appears, read: SINE compound 1 hour, then 1 nM b-LMB […].
The mark [12] stands for this setting: biotinylated SINE compound alone, direct binding.
Where [13] appears, read: biotinylated SINE compound alone, direct binding, read-out: 50% Occupancy.
[14] abbreviates: 4 h, read-out: Rev-GFP (nM), U2OS cells stably expressing Rev-GFP, 4 hours treatment.
Setting [15] is: SINE compound 1 hour, then 1 nM b-LMB […], read-out: Avg 50% Occupancy.

Like-named read-outs stand apart in the source and are kept apart here.

Turning to `NC(=O)/C(=C/n1cnc(-c2cc(C(F)(F)F)cc(C(F)(F)F)c2)n1)c1cncnc1` [KPT-8602], the IC50 in data set [1] (setting [9]) turned out to be 42 nM; in data set [1] (setting [10]), 40 nM; in data set [2] it was 0.019 µM. The “Avg 90% Occupancy (μM)” value in data set [3] (setting [11]) is given as 1.1 +/− 1.03 (n = 2) μM. The “90% Occupancy” value in data set [3] (followed by 0.1 μM KPT-9511 as probe) was 0.11 µM.

Take `O=C(/C=C\n1cnc(-c2cc(C(F)(F)F)cc(C(F)(F)F)c2)n1)N1CC(F)(F)C1` [KPT-276]: the results for the IC50 in data set [1] (setting [9]) and in data set [2] were 53 nM and 0.018 µM, respectively.

Regarding `O=C1N[C@H]2[C@H](CS[C@H]2CCCCC(=O)Oc2cc(-c3ncn(/C=C\C(=O)N4CC(F)(F)C4)n3)cc(C(F)(F)F)c2)N1` [KPT-9058], the IC50 in data set [1] (setting [9]) is 961 nM. Moreover, in data set [2], the IC50 is 0.11 µM and the “fold less cytotoxic compared to unmodified counterpart” value was around 6 fold. Besides, the “90% Occupancy” value in data set [3] (setting [12]) is 0.69 µM. The EC50 in data set [3] (setting [13]) is 0.12 µM.

As for `CCC(=C/[C@H](C)C/C=C/C(C)=C/[C@@H](C)C(=O)[C@@H](C)[C@H](O)[C@@H](C)C/C(C)=C/C(=O)O)/C=C/[C@@H]1OC(=O)C=C[C@@H]1C` [LMB, leptomycin B, reference compound], the IC50 was found to be 0.16 nM in data set [1] (setting [14]); 0.00046 µM in data set [4]; 0.00019 µM in data set [5]; 0.00039 µM in data set [6]; 0.00068 µM in data set [7].

As to `NC(=O)/C(=C/n1cnc(-c2cc(OC(=O)CCCC[C@@H]3SC[C@@H]4NC(=O)N[C@@H]43)cc(C(F)(F)F)c2)n1)c1cncnc1` [KPT-9511], the IC50 in data set [1] (setting [9]) turned out to be 230 nM. Moreover, in data set [2], the IC50 came to 0.28 µM and the “fold less cytotoxic compared to unmodified counterpart” value was around 15 fold. Moreover, in data set [3] (setting [12]), the “90% Occupancy” value came out at 0.61 µM. Also, in data set [3] (setting [13]), the EC50 came to 0.18 µM.

Turning to `COc1cc(-c2ncn(/C=C/C(=O)OC(C)C)n2)cc(C(F)(F)F)c1` [KPT-301], the “XPO1 binding in the occupancy assay (negative control)” value in data set [3] (0 – 10 μM, then 1 nM b-LMB, data not shown) was “no XPO1 bound”.

Regarding `CCC(C=CC1OC(=O)C=CC1C)=CC(C)CC=CC(C)=CC(C)C(=O)C(C)C(O)C(C)CC(C)=CC(=O)NCCCCCCNC(=O)CCCCC1SCC2NC(=O)NC21` (stereo not shown) [b-LMB, reference compound], the IC50 turned out to be 0.11 nM in data set [1] (setting [14]); 0.0031 µM in data set [4]; 0.006 µM in data set [5]; 0.00253 µM in data set [6]; 0.00468 µM in data set [7]. For the same molecule, the “fold less cytotoxic than unmodified LMB” value in data set [8] is 6 – 30 fold. Moreover, the “amount of b-LMB necessary to occupy 90% of XPO1” value in data set [3] (b-LMB […], direct binding, n = 3) turned out to be 2.53 ± 1.72 nM. Besides, the EC50 in data set [3] (b-LMB […], direct binding, n = 3, read-out: amount of b-LMB necessary to occupy 50% of XPO1) came out at 0.00027 µM.

In the case of `O=C(/C=C\n1cnc(-c2cc(C(F)(F)F)cc(C(F)(F)F)c2)n1)NNc1ccccn1` [Verdinexor, verdinexor], the IC50 in data set [1] (setting [10]) came out at 10 nM. In addition, in data set [3] (setting [11]), the “Avg 90% Occupancy (μM)” value is listed as 0.34 +/− 0.08 (n = 3) μM. Moreover, the EC50 in data set [3] (setting [15]) was found to be 0.04 µM.

On to `CC(C)(C)C(=O)NNC(=O)/C=C\n1cnc(-c2cc(C(F)(F)F)cc(C(F)(F)F)c2)n1` [KPT-350], for which, in data set [1] (setting [10]), the IC50 was determined as 170 nM. In addition, the “Avg 90% Occupancy (μM)” value in data set [3] (setting [11]) was 6.45 +/− 3.36 (n = 3) μM. For the same molecule, in data set [3] (setting [15]), the EC50 was determined as 0.63 µM.

Values taken from PMC4811503, “A method for quantification of exportin-1 (XPO1) occupancy by Selective Inhibitor of Nuclear Export (SINE) compounds” (Oncotarget, 2015).
